One assay has as its target T1, IKK (Homo sapiens, UniProt O14920).
T1 construct: IKK was immunoprecipitated with an IKKα/β antibody; endogenous in cells; host or cells: THP-1 cells stimulated with 1 μg/ml LPS; whole cell extract immunoprecipitated with an IKKα/β antibody (Santa Cruz)
Briefly: In vitro kinase assay: IKK immunoprecipitated from LPS-stimulated THP-1 cells, GST-IκBα phosphorylation. In kind it is biochemical. To be noted: GST-IκB phosphorylated by activated IKK pretreated with the compound. On the procedure:
In vitro kinase assay: THP-1 cells (1×10^7 cells) were stimulated with 1 μg/ml LPS for the indicated time periods and whole cell extracts were prepared as described above. IKK was immunoprecipitated with an IKKα/β antibody (raised against amino acid 470-755 of IKKβ of human origin but partially cross-reactive with IKKα as detected by Western Blotting (Santa Cruz Biotechnology Inc.). Compound A was diluted in kinase buffer (25 mM HEPES pH 7.5, 10 mM magnesium acetate, 50 μM ATP) at the appropriate concentrations. The compound was added to the beads for 30 min. at 30° C. The kinase reaction was started by adding 2.5 μg of the GST-IκBα substrate (Santa Cruz Biotechnology Inc.) together with 2 μCi γ-^32P-ATP (Amersham Pharmacia Biotech) per sample. The reaction was allowed to proceed for 30 min. at 30° C., and the IKK activity was measured by the amount of radioactive-labelled GST-IκBα bands, quantified by the STORM860 Phospho-Imager.
A general problem with the kinase assay is prestimulation of the kinase. To achieve a value for the zero-point, the LPS-activated IKK mixture was incubated with 20 μM myricetin (Sigma-Aldrich), which is a known IKKβ inhibitor (S. H. Tsal et al., J. Cell Biochem. 74, 1999, pp. 606-615). This value was subtracted from the all other values. All data are expressed as percentage of the activity of the LPS-activated IKKβ kinase treated with 0.1% DMSO.

The test system of another assay is NYH SCLC cells. The assay can be described thus: DNA synthesis (tritiated thymidine incorporation) in NYH SCLC cells. The format is cell-based. To be noted: incorporation of tritiated thymidine in NYH SCLC cells; read-out: NYH proliferation in vitro (IC50 nM). On the procedure: DNA synthesis: NYH SCLC, HT-1080, Colo-320, PC-3 and H460 cells (7.5×10^3 cells/ml) were seeded in tissue culture vessels and the test compound were added 2 h after plating. Following an incubation for 144 h tritiated thymidine (5 CI/mmol, Amersham Pharmacia Biotech) was added to the culture at the concentration of 1 μCi/ml, and the cells were incubated for additional 4 h. The incorporated thymidine was measured with a β-counter. Each compound concentration was tested in triplicate.
For orientation: Incorporation of labelled thymidine or its analogues reports DNA synthesis.

A further assay deals with NYH Xenografts. Briefly: NYH xenografts in nude mice, tumour growth. In kind it is in vivo, NMRI nu/nu mice. To be noted: nude mice with NYH SCLC tumours, 14 days of treatment with 20 mg/kg. On the procedure: All of the animal experiments were conducted according to the guidelines and ethical standards of the Danish Committee for Animal Experiments. Female NMRI nu/nu mice 6 weeks of age were purchased from M&B (Ry, Denmark). The mice were allowed an acclimatisation period of 1-3 weeks before start of the experiments. The nude mice were housed in Scantainers under semi-sterile conditions and all handling of mice was performed in a laminar flow bench.
NYH Xenografts. NMRI nu/nu mice were injected with 1×10^7 cells in 0.2 ml media s.c. in both flanks and tumour growth was measured twice weekly. The tumour area was used as expression of the tumour size and was calculated from two perpendicular diameters measured with a digital caliper. Compound A was given for fourteen consecutive days by oral gavage from day 4-6 when the tumour size was 24-30 mm^2. Each treatment group consisted of 10 mice.
Statistical Methods In the animal models, tumour sizes were expressed by the mean of the trends in each treatment group. The trend is the linear increment or tumour size, where tumour size is the square root of the (mean) area of the tumour(s). Comparison with controls was expressed as T/C % and calculated as follows:
A=(overall mean tumour size at baseline+mean trend of treatment*intended days of treatment)
B=(overall mean tumour size at baseline+mean trend of control*intended days of treatment)
Overall mean tumour size at baseline=pooling all treatments this is the mean of all baseline values. For each mouse the baseline value is calculated as the square root of the (mean) area of the tumour(s).
Significance was tested with the Bonferroni correction. This correction is a method for adjusting (lowering) the significance level so the overall finding of one significant difference due to chance is around 5 percent.

In assay [1] the test system is NF-κB. The assay can be described thus: NF-κB-dependent luciferase assay in HT-1080 cells, TNF-α stimulation. In kind it is cell-based, human. To be noted: TNF-α 50 ng/ml, up to 24 h. Here is the method:
(§1) The NF-κB-luciferase reporter plasmid (pBIIX) and pRL-TK control vector described in Example 1 were used for the luciferase assay,
The HT-1080 cells were seeded at a density of 3×10^4 cells/cm^2 in 6 well-plates. The following day, the cells were co-transfected with construct DNA and pRL-TK vector using FuGene Transfection Reagent. A mixture of 10 μl Fugene and 90 μl serum free medium (per well) was prepared and Incubated for 5 min at room temperature. Then, this mixture was transferred to a mixture of construct DNA (1.25 μg per well) and pRL-TK vector (0.25 μg per well), gently mixed, incubated for 15 min at room temperature and added to the cells. The cells were treated at 37° C. with compound A (10^−12−10^−5 M) or DMSO for 24 h before stimulation with TNF-α (50 ng/ml) for 6 h.
(§2) The cell lysate was assayed for luciferase activity using the Dual luciferase kit as described by the manufacturer (Promega). All transfections were performed in triplicate. Firefly luciferase activity was corrected for differences in transfection efficiency by normalizing it to the measured Renilla luciferase activity.
(§3) NF-κB activity was measured by the luciferase assay described in Example 1.

The subject of assay [2] is NF-κB. The assay can be described thus: NF-κB-dependent luciferase assay in Colo-320 cells, TNF-α stimulation. In kind it is cell-based, human. To be noted: TNF-α 50 ng/ml, up to 24 h. On the procedure:
as §1
The Colo-320 cells were seeded with a density of 5×10^4 cells/cm^2 in 6-well plates (NUNC). The following day, the cells were co-transfected with construct DNA and pRL-TK using FuGene Transfection Reagent (Boehringer Mannheim). A mixture of 5 μl Fugene and 95 μl serum free medium (per well) was prepared and incubated for 5 min at room temperature. Then, the mixture was transferred to a mixture of construct DNA (2.5 μg per well) and pRL-TK vector (0.25 μg per well), gently mixed, incubated for 15 min at room temperature and added to the cells. The cells were treated at 37° C. with compound A (10^−12−10^−5 M) or DMSO for 24 h before stimulation with TNF-α (50 ng/ml) for 6 h.
as §2, §3

Assay [3] deals with NF-κB. The assay can be described thus: NF-κB-dependent luciferase assay in PC-3 cells, TNF-α stimulation. To be noted: TNF-α 50 ng/ml, up to 24 h. In kind it is cell-based, human. On the procedure: as §1
The PC-3 cells were seeded at a density of 3×10^4 cells/cm^2 in 6 well-plates. The following day, the cells were co-transfected with construct DNA and pRL-TK vector using DOTAP liposomal transfection reagent (Boehringer Mannheim). The construct DNA (4.0 μg per well), the pRL-TK vector (1.0 μg per well), DOTAP (16.7 μl per well) and dH2O (total volume 100 μl per well) were carefully mixed and incubated for 15 min at 37° C. A growth medium without serum (900 μl per well) was added and the transfection mixture (1 ml per well) was added to the cells. After 4 h at 37° C., a growth medium with 20% FBS (1 ml per well) was added. The cells were treated at 37° C. with compound A (10^−12−10^−5 M) or DMSO for 24 h before stimulation with TNF-α (50 ng/ml) for 6 h.
as §2, §3

Like-named read-outs stand apart in the source and are kept apart here. Bounds are passed on as bounds.

T1 sequence (O14920 whole entry): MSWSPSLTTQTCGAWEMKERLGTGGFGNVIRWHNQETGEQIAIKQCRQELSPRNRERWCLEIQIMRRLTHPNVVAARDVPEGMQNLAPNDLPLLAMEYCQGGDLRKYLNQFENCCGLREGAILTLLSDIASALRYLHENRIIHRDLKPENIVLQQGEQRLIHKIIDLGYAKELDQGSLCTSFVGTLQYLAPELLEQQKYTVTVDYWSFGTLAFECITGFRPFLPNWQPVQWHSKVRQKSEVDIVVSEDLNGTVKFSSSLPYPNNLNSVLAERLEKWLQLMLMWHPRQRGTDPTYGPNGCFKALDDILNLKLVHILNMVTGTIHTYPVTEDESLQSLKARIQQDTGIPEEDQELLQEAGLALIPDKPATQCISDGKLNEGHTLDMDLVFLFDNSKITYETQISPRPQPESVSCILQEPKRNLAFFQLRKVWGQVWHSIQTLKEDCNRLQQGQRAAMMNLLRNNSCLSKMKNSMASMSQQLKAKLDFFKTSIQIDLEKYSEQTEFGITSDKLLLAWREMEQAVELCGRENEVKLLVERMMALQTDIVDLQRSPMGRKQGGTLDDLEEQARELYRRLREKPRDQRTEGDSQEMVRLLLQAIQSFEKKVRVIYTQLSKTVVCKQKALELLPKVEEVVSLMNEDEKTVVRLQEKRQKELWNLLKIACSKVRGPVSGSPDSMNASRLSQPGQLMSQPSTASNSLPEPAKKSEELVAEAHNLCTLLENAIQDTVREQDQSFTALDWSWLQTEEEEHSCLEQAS
T1 sequence (O15111 whole entry partner): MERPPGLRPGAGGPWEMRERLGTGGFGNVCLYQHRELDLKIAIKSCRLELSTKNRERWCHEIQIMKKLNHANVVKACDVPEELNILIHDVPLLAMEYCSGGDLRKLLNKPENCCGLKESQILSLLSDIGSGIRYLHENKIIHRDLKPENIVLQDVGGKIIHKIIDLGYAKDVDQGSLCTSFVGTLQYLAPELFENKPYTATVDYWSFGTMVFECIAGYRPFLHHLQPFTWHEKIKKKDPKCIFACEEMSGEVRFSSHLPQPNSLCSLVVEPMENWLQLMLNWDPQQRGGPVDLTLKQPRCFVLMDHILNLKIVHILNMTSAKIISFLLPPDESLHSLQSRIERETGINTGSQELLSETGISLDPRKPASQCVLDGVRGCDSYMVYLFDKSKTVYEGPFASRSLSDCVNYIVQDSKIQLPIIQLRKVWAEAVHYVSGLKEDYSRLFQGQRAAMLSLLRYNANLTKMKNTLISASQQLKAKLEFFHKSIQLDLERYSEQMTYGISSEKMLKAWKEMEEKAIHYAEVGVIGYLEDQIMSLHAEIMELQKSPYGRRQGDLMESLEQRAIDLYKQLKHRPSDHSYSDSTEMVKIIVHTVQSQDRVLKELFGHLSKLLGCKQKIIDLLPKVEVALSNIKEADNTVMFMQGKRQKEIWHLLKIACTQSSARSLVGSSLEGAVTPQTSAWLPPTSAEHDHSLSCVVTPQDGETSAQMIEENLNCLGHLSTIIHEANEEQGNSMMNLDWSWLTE
T1 sequence (Q9Y6K9 whole entry partner): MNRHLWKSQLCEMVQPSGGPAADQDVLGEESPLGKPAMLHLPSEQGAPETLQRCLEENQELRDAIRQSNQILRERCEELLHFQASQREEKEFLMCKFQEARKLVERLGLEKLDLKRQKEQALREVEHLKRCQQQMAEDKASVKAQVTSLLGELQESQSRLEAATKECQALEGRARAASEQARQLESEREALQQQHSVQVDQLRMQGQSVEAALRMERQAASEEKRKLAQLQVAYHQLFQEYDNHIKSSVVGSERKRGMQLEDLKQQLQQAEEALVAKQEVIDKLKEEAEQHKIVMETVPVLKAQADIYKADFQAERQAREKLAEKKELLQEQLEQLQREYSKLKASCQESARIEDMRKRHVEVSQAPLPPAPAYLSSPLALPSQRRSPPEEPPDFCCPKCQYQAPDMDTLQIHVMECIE

`COc1ccc(NC(=NC#N)NCCCCCCOc2ccc(Cl)cc2)cn1` [compound C]: the IC50 at IKK (read-out: IKK activity in vitro (IC50 nM)) was 22 ± 2.4 nM; in the assay on NYH SCLC cells, 567 ± 127 nM.
On to `CCOC(=O)c1cccc(NC(=NC#N)NCCCCCCOc2ccc(Cl)cc2)c1` [compound E], for which the IC50 on IKK (cell prints (M), head nM, read-out: IKK activity in vitro (IC50)) is greater than 10000 nM; with NYH SCLC cells, 597 ± 42 nM. Also, the “NYH tumor growth in vivo (T/C in %)” value with NYH Xenografts is recorded as −17.1%.
Turning to TNF-α, the figures for the “NF-κB activity increase compared to the control” value with NF-κB [1] and in the assay with NF-κB [2] were “approximately 12 fold” and roughly 46 fold, respectively. Moreover, the “effect on the NF-κB activity” value in the assay with NF-κB [3] is reported as “only a small effect”.

The values are drawn from US6642215B2 (Leo Pharma A/S, priority 2001, dated 2003).
